Results as given in the CheMixHub viscosity set.
“And” between values parts separate entries of the source, which are not always exact repeats. Identical values can stand only once. ± gives the uncertainty stated by the source.

Assay: xn = mol fraction of the nth substance listed

[Br-].[Na+] + OCCO
101 kPa, x1 = 0.142
Conditions	viscosity [mPa·s]
303 K	39.03 ± 0.57
313 K	25.16 ± 0.35
323 K	17.24 ± 0.23

CCCC[n+]1ccn(C)c1.C[C@H](N)C(=O)[O-] + OCc1ccccc1
101 kPa
Conditions	viscosity [mPa·s]
298.15 K, x1 = 0.4864	18.75 ± 1.2
313.15 K, x1 = 0.6945	18.65 ± 1.2

CC(=O)OC(C)=O + Oc1ccccc1
viscosity [mPa·s], 101.33 kPa
Conditions	298.15 K	323.15 K
x2 = 0.0899	0.922 ± 0.0092	0.666 ± 0.0067
x2 = 0.1347	0.98 ± 0.0098	0.706 ± 0.0071
x2 = 0.1492	1.014 ± 0.01	0.733 ± 0.0073
x2 = 0.2953	1.267 ± 0.013	0.896 ± 0.009
x2 = 0.3588	1.412 ± 0.014	0.951 ± 0.0095
x2 = 0.4184	1.559 ± 0.016	1.05 ± 0.01
x2 = 0.4673	1.706 ± 0.017	1.1 ± 0.011
x2 = 0.4678	1.707 ± 0.017	1.1 ± 0.011
x2 = 0.5	1.839 ± 0.018	1.164 ± 0.012
x2 = 0.5169	1.89 ± 0.019	1.191 ± 0.012
x2 = 0.5846	2.069 ± 0.021	1.275 ± 0.013
x2 = 0.6414	2.668 ± 0.027	1.513 ± 0.015
x2 = 0.78	3.958 ± 0.04	2.017 ± 0.02
x2 = 0.8878	5.906 ± 0.059	2.623 ± 0.026

OCc1ccccc1 + c1ccccc1
Conditions	viscosity
293.15 K, 101.32 kPa, x1 = 0.03068	0.6725 ± 0.14 mPa·s
293.15 K, 101.32 kPa, x1 = 0.04509	0.6903 ± 0.14 mPa·s
293.15 K, 101.32 kPa, x1 = 0.1059	0.7825 ± 0.16 mPa·s
293.15 K, 101.32 kPa, x1 = 0.1545	0.8652 ± 0.17 mPa·s
293.15 K, 101.32 kPa, x1 = 0.1997	0.9735 ± 0.2 mPa·s
298.15 K, 101.33 kPa, x1 = 0.1	0.7 ± 0.019 mPa·s
298.15 K, 101.33 kPa, x1 = 0.2	0.855 ± 0.017 mPa·s and 0.855 ± 0.023 mPa·s
298.15 K, 101.33 kPa, x1 = 0.5	1.712 ± 0.034 mPa·s and 1.712 ± 0.047 mPa·s
298.15 K, 101.33 kPa, x1 = 0.8	3.267 ± 0.091 mPa·s
303.15 K, 101 kPa, x1 = 0.1079	0.8732 ± 0.0083 mPa·s
303.15 K, 101 kPa, x1 = 0.2167	1.03 ± 0.0097 mPa·s
303.15 K, 101 kPa, x1 = 0.3472	1.291 ± 0.012 mPa·s
303.15 K, 101 kPa, x1 = 0.4657	1.601 ± 0.015 mPa·s
303.15 K, 101 kPa, x1 = 0.5516	1.877 ± 0.017 mPa·s
303.15 K, 101 kPa, x1 = 0.6577	2.306 ± 0.021 mPa·s
303.15 K, 101 kPa, x1 = 0.7244	2.653 ± 0.023 mPa·s
303.15 K, 101 kPa, x1 = 0.868	3.594 ± 0.031 mPa·s
303.15 K, 101 kPa, x1 = 0.9178	3.983 ± 0.035 mPa·s
308.15 K, 101.33 kPa, x1 = 0.1	0.597 ± 0.016 mPa·s
308.15 K, 101.33 kPa, x1 = 0.2	0.714 ± 0.019 mPa·s
308.15 K, 101.33 kPa, x1 = 0.5	1.379 ± 0.038 mPa·s
308.15 K, 101.33 kPa, x1 = 0.8	2.433 ± 0.067 mPa·s
318.15 K, 101.33 kPa, x1 = 0.1	0.526 ± 0.014 mPa·s
318.15 K, 101.33 kPa, x1 = 0.2	0.617 ± 0.017 mPa·s
318.15 K, 101.33 kPa, x1 = 0.5	1.139 ± 0.031 mPa·s
318.15 K, 101.33 kPa, x1 = 0.8	1.904 ± 0.052 mPa·s
323.15 K, 101.33 kPa, x1 = 0.1	0.493 ± 0.013 mPa·s
323.15 K, 101.33 kPa, x1 = 0.2	0.578 ± 0.012 mPa·s and 0.575 ± 0.016 mPa·s
323.15 K, 101.33 kPa, x1 = 0.5	1.026 ± 0.021 mPa·s and 1.026 ± 0.028 mPa·s
323.15 K, 101.33 kPa, x1 = 0.8	1.695 ± 0.046 mPa·s

c1ccc(-c2ccccc2)cc1 + c1ccccc1
298.15 K, 101 kPa
Conditions	viscosity [mPa·s]
x1 = 0.1006	0.7585 ± 0.02
x1 = 0.1824	0.9014 ± 0.024
x1 = 0.3638	1.298 ± 0.034

O=CNc1ccccc1 + c1ccncc1
298.15 K, 101 kPa
Conditions	viscosity [mPa·s]
x1 = 0.06989	1.089 ± 0.22
x1 = 0.1339	1.335 ± 0.27
